Results on 1 compound are retold here after patent publication US6566348B1, “Pesticides based on cyclic polysiloxanes” (Bayer Aktiengesellschaft, priority 1995, dated 2003).

The series is described as follows: Crystallizing out at low temperatures. In kind it is physicochemical.

On to `C[Si]1(C)O[Si](C)(C)O[Si](C)(C)O[Si](C)(C)O[Si](C)(C)O1` [Decamethylcyclopentasiloxane, decamethylcyclopentasiloxane], for which the “stability at low temperatures” value is listed as “stable at low temperatures, without crystallizing out”.
